Laboratory results: PubChem BioAssay AID2742 (NMMLSC, 2010)
Activity calls are given as the source filed them.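 The calls were made as follows: active = fitted half-maximal concentration for changing background-corrected GFP signal at or below a set limit; inactive = the rest.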

Test: modulators of MEP2-GFP levels in yeast, dose response, S. cerevisiae, flow cytometry GFP, MLPCN hits (AID 2742);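 also: GFP tag reports level of MEP2 protein as a downstream target of TOR signalling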
Conditions: S. cerevisiae MEP2-GFP strain, flow cytometry fluorescence, 3 h; at 33 µM (top of the series)

| SMILES | GFP fluorescence (kMESF), higher = increase |
| --- | --- |
| COc1cc(/C=C2\C(=O)ON=C2c2ccccc2)cc(OC)c1OC | 3.21 kMESF (inactive) |
| O=C(c1ccc([N+](=O)[O-])o1)N1CCN(c2nc3c(F)cc(F)cc3s2)CC1 | -3.51 kMESF (inactive) |
| O=C(NOC(=O)c1ccccc1)c1ccccc1 | 5.42 kMESF (inactive) |
| O=C1c2cccc3c([N+](=O)[O-])ccc(c23)C(=O)N1c1ccccn1 | 12.2 kMESF (inactive) |
| O=C1C=CC(=O)N1c1ccc(O)cc1 | 6.77 kMESF (inactive) |
| COc1ccccc1NC1=C(Cl)C(=O)N(c2ccccc2)C1=O | 2.07 kMESF (inactive) |
| O=c1oc2ccccc2c(O)c1[C@H]1c2ccc(O)cc2Oc2c1c(=O)oc1ccccc21 | 4.67 kMESF (inactive) |
| O=C(Oc1c(Cl)cc(Cl)c2cccnc12)c1cccs1 | 3.47 kMESF (inactive) |
| Cn1ncc2c(O/N=C(\N)c3ccc(C(C)(C)C)cc3)ncnc21 | 3.78 kMESF (inactive) |
| O=C1C(Cl)=C(N2CCN(Cc3ccccc3)CC2)C(=O)N1c1ccccc1 | 3.31 kMESF (inactive) |
| O=C(Nc1nc(-c2ccccn2)cs1)C1COc2ccccc2O1 (configuration not stated) | 5.21 kMESF (inactive) |
| CC(=O)c1ccc(N2CCN(C(=O)c3ccc(Br)cc3)CC2)c(F)c1 | 2.85 kMESF (inactive) |
| Cc1ccsc1/C=N/Nc1ncc(Cl)cc1Cl | 5.19 kMESF (inactive) |
| O=[N+]([O-])c1ccc(S(=O)(=O)c2ccccc2)nc1 | 5.25 kMESF (inactive) |
| Cc1ccc(C(=O)O)cc1N=Cc1cc(Br)cc(Br)c1O | 5.7 kMESF (inactive) |
| O=S(=O)(/N=C(\Sc1ccc(Cl)cc1)c1ccccc1)c1ccccc1 | 4.33 kMESF (inactive) |
| COc1ccc(-c2cc3cc(C(=O)O)ccn3c2C(=O)c2ccccc2)cc1 | 3.23 kMESF (inactive) |
| Nc1ccccc1SC(C[N+](=O)[O-])c1ccccc1 (configuration not stated) | 3.67 kMESF (inactive) |
| Cc1cccc(C)c1NC(=O)C(Cl)C(=O)c1ccccc1 (configuration not stated) | 4.47 kMESF (inactive) |
| CC(OC(=O)c1ccco1)C(=O)Nc1nc(-c2ccccc2)cs1 (configuration not stated) | 2.67 kMESF (inactive) |
| Nc1ccccc1C#CC(=O)c1ccccc1 | 6.68 kMESF (inactive) |

| SMILES | GFP fluorescence (kMESF), higher = increase |
| --- | --- |
| N#Cc1cc([N+](=O)[O-])c(-n2nnc3ccccc32)c([N+](=O)[O-])c1 | 3.54 kMESF (inactive) |
| CC(C)(C)C1C/C(=C/c2ccccn2)C(=O)/C(=C/c2ccccn2)C1 (configuration not stated) | 2.67 kMESF (inactive) |
| CC1(C(=O)NC(=S)NNC(=O)c2ccncc2)CCCCC1 | 3.51 kMESF (inactive) |
| Cc1ccc(NC(=O)CCc2ccccc2)cc1S(=O)(=O)N1CCOCC1 | 1.72 kMESF (inactive) |
| O=C(Oc1oc(-c2ccco2)nc1C=Nc1ccc(Cl)cc1)c1ccco1 | 3.6 kMESF (inactive) |
| C/C(=N\NC(=O)c1cc2ccccc2cc1O)c1ccccn1 | 3.61 kMESF (inactive) |
| Cc1ccc(S(=O)(=O)Cc2cc(F)c([N+](=O)[O-])cc2[N+](=O)[O-])cc1 | 0.65 kMESF (inactive) |
| C#CCOCCOCCOCCNc1nc(N2CCN(C(=O)CCCCCCCCCCNC(=O)[C@H](CCCCN)n3cc(C)nn3)CC2)nc(N2CCN(C(=O)CCCCCCCCCCNC(=O)[C@H](CCCN=C(N)N)n3cc(C[C@@H](C)CC)nn3)CC2)n1 | 3.34 kMESF (inactive) |
| O=C1C(Cl)=C(Nc2ccccc2O)C(=O)N1CCc1ccccc1 | 3.11 kMESF (inactive) |
| COc1cc(N=c2ssnc2Cl)cc(OC)c1 | 4.07 kMESF (inactive) |
| CCSc1nnc(NC(=O)c2ccccn2)s1 | 4.39 kMESF (inactive) |
| CCOC(=O)CCS(=O)(=O)c1nc(-c2ccccc2)cc(C(F)(F)F)n1 | 7.24 kMESF (inactive) |
| O=C(Nc1ccc(Cl)cc1Cl)c1cccc(N2C(=O)C=CC2=O)c1 | 4.39 kMESF (inactive) |
| O=C1/C(=C\c2ccc(O)c(O)c2)SC(=S)N1Cc1ccccc1 | -21.1 kMESF (inactive) |
| Cc1ccc(C(=O)Oc2oc(-c3ccccc3)nc2C=Nc2ccc(N(C)C)cc2)cc1 | 4.19 kMESF (inactive) |
| N/C(Cc1ccc(Cl)c(Cl)c1)=N\OC(=O)c1cccs1 | 3.66 kMESF (inactive) |
| O=[N+]([O-])c1cc(CN2CCN(c3cccc(C(F)(F)F)c3)CC2)c2cccnc2c1O | 4.44 kMESF (inactive) |
| COc1cc(CNC(=O)CCCCCCC(C)C)ccc1O | 2.32 kMESF (inactive) |
| O=C1NC(=O)N(c2ccccc2)C(=O)/C1=C/c1ccc(Sc2ccccc2)o1 | 4.03 kMESF (inactive) |
| COc1cc(NC(=O)c2ccc(C)cc2)ccc1NC(=O)c1cc2ccccc2o1 | 2.3 kMESF (inactive) |
| COc1ccc(NC2=C(Cl)C(=O)N(CCc3ccccc3)C2=O)cc1 | 2.7 kMESF (inactive) |
